Our source for the % of inhibition and % of control values is ChEMBL document CHEMBL5465560, “Selectivity Literature for EUbOPEN Chemogenomic Library” (2024).

Experiment [1] has as its system Serine/threonine-protein kinase B-raf (Homo sapiens), P15056 [V600E]. The experiment can be described thus: (§1) Selectivity interaction (LanthaScreen Eu Kinase Binding Assay) EUB0001632a BRAF. The settings on record: at 10 µM. (In general: Time-resolved FRET reads energy transfer from a long-lived donor to a nearby acceptor.)
For experiment [2], the target named is Serine/threonine-protein kinase B-raf (Homo sapiens) (UniProt P15056). The description is as §1. Particulars: at 10 µM.
Sequence of Serine/threonine-protein kinase B-raf (Homo sapiens) (P15056 whole entry): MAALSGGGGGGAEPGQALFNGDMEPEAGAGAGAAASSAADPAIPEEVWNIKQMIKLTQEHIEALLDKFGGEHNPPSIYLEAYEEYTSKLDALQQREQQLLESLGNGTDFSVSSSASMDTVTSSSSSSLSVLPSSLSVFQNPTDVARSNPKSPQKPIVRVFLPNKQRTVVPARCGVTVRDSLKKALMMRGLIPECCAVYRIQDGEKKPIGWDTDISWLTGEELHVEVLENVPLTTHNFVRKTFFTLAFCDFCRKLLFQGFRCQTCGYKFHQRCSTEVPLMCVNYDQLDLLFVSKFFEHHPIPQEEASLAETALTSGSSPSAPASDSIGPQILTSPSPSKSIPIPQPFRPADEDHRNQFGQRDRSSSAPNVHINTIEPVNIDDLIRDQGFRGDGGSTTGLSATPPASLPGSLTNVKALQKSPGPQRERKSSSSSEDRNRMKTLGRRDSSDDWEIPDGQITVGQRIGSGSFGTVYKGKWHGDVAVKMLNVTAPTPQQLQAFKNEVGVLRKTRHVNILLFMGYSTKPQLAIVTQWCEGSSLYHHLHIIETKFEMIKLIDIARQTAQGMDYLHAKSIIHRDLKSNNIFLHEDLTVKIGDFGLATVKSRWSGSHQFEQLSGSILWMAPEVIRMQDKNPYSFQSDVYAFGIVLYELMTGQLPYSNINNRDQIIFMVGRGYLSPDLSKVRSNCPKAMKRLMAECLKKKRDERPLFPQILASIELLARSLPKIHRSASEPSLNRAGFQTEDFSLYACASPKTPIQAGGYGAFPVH
Experiment [3] concerns the target T1, Dual specificity protein kinase TTK (Homo sapiens) (UniProt P33981).
T1 sequence (whole entry): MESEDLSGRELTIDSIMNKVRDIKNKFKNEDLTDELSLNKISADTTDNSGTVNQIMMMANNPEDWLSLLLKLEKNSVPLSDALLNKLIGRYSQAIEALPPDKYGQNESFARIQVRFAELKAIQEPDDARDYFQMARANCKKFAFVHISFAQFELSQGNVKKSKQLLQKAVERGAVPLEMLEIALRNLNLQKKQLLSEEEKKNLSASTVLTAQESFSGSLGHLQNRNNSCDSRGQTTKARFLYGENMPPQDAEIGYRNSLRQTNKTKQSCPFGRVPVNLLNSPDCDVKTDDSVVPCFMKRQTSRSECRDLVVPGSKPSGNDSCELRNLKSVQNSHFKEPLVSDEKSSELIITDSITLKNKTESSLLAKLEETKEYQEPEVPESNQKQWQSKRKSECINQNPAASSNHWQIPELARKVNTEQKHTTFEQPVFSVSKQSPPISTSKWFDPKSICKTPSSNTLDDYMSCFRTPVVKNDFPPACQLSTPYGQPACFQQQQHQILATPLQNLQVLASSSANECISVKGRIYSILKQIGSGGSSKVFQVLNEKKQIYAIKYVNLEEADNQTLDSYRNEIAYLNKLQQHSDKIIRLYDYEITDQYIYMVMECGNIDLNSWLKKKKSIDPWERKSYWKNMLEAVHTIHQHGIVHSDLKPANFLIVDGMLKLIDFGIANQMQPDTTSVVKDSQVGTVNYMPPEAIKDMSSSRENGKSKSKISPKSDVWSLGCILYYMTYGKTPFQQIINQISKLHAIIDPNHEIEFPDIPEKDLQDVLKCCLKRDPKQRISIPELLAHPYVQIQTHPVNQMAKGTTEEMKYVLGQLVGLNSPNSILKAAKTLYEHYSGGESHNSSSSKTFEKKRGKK
The experiment can be described thus: Selectivity interaction (KinomeScan (DiscoverX)) EUB0000655a TTK. Particulars: at 10 µM.

Experiment [4] has as its target DNA-dependent protein kinase catalytic subunit (Homo sapiens) (UniProt P78527). The experiment can be described thus: Selectivity interaction (ActivX KiNativ screen (kinase selectivity in THP-1 cell lysates)) EUB0000639a PRKDC. Type of experiment: subcellular. The settings on record: lysate.
In experiment [5] the target is T2, cGMP-dependent protein kinase 2 (Homo sapiens) (UniProt Q13237).
T2 sequence (whole entry): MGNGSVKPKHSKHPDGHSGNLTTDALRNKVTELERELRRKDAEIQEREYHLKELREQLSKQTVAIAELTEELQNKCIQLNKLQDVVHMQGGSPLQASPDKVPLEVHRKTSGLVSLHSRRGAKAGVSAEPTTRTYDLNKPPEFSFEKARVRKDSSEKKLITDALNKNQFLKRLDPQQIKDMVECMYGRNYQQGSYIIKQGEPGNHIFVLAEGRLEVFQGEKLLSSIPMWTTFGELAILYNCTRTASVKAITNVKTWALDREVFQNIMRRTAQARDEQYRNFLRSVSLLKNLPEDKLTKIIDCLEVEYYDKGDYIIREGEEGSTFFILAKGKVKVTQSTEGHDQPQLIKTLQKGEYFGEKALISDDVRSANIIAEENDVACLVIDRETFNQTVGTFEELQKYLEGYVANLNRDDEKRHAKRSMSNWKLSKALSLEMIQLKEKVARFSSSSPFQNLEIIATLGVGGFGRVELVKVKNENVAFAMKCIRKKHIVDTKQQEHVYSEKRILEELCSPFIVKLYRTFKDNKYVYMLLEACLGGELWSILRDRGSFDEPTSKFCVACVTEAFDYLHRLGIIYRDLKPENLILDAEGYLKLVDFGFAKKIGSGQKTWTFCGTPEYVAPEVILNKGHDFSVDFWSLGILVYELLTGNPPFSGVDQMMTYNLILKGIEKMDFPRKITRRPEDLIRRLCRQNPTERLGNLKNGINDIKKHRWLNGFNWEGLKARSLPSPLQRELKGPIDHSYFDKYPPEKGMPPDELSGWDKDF
The experiment can be described thus: Selectivity interaction (KinomeScan (DiscoverX)) EUB0001049a PRKG2. The settings on record: at 1 µM.

For experiment [6], the target named is T3, Serine/threonine-protein kinase ULK2 (Homo sapiens) (UniProt Q8IYT8).
T3 sequence (whole entry): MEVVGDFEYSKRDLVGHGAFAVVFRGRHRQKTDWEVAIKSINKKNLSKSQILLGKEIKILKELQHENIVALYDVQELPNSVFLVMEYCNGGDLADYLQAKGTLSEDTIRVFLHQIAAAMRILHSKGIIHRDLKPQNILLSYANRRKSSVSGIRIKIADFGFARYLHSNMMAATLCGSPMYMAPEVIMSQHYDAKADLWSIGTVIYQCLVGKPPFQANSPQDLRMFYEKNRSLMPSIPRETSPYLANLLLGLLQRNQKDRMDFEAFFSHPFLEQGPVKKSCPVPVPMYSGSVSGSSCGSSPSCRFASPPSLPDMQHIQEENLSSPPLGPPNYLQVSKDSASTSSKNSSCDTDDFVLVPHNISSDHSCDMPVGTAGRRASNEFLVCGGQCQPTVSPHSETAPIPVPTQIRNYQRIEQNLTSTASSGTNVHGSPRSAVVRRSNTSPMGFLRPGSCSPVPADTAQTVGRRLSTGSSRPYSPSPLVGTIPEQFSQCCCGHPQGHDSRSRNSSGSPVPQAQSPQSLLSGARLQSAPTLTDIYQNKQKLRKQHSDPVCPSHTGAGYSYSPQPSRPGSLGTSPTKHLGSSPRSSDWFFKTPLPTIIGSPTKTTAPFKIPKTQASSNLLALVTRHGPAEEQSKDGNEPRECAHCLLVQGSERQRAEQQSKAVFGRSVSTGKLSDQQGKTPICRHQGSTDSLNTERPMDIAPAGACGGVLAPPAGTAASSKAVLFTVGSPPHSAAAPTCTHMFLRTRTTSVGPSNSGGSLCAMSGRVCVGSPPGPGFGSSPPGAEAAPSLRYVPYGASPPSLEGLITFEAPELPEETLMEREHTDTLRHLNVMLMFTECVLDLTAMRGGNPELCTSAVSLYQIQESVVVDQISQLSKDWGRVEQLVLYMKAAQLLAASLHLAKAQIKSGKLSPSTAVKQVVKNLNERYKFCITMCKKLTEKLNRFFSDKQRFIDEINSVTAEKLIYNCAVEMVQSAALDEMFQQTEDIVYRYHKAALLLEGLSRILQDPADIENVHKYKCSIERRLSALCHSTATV
The experiment can be described thus: Selectivity interaction (KinomeScan (DiscoverX)) EUB0000695a ULK2. Particulars: at 100 nM.

The subject of experiment [7] is eIF-2-alpha kinase GCN2 (Homo sapiens), Q9P2K8 [S808G]. The experiment can be described thus: Selectivity interaction (KinomeScan (DiscoverX)) EUB0000092b EIF2AK4. Particulars: at 10 µM.

Sequence of DNA-dependent protein kinase catalytic subunit (Homo sapiens) (P78527 whole entry): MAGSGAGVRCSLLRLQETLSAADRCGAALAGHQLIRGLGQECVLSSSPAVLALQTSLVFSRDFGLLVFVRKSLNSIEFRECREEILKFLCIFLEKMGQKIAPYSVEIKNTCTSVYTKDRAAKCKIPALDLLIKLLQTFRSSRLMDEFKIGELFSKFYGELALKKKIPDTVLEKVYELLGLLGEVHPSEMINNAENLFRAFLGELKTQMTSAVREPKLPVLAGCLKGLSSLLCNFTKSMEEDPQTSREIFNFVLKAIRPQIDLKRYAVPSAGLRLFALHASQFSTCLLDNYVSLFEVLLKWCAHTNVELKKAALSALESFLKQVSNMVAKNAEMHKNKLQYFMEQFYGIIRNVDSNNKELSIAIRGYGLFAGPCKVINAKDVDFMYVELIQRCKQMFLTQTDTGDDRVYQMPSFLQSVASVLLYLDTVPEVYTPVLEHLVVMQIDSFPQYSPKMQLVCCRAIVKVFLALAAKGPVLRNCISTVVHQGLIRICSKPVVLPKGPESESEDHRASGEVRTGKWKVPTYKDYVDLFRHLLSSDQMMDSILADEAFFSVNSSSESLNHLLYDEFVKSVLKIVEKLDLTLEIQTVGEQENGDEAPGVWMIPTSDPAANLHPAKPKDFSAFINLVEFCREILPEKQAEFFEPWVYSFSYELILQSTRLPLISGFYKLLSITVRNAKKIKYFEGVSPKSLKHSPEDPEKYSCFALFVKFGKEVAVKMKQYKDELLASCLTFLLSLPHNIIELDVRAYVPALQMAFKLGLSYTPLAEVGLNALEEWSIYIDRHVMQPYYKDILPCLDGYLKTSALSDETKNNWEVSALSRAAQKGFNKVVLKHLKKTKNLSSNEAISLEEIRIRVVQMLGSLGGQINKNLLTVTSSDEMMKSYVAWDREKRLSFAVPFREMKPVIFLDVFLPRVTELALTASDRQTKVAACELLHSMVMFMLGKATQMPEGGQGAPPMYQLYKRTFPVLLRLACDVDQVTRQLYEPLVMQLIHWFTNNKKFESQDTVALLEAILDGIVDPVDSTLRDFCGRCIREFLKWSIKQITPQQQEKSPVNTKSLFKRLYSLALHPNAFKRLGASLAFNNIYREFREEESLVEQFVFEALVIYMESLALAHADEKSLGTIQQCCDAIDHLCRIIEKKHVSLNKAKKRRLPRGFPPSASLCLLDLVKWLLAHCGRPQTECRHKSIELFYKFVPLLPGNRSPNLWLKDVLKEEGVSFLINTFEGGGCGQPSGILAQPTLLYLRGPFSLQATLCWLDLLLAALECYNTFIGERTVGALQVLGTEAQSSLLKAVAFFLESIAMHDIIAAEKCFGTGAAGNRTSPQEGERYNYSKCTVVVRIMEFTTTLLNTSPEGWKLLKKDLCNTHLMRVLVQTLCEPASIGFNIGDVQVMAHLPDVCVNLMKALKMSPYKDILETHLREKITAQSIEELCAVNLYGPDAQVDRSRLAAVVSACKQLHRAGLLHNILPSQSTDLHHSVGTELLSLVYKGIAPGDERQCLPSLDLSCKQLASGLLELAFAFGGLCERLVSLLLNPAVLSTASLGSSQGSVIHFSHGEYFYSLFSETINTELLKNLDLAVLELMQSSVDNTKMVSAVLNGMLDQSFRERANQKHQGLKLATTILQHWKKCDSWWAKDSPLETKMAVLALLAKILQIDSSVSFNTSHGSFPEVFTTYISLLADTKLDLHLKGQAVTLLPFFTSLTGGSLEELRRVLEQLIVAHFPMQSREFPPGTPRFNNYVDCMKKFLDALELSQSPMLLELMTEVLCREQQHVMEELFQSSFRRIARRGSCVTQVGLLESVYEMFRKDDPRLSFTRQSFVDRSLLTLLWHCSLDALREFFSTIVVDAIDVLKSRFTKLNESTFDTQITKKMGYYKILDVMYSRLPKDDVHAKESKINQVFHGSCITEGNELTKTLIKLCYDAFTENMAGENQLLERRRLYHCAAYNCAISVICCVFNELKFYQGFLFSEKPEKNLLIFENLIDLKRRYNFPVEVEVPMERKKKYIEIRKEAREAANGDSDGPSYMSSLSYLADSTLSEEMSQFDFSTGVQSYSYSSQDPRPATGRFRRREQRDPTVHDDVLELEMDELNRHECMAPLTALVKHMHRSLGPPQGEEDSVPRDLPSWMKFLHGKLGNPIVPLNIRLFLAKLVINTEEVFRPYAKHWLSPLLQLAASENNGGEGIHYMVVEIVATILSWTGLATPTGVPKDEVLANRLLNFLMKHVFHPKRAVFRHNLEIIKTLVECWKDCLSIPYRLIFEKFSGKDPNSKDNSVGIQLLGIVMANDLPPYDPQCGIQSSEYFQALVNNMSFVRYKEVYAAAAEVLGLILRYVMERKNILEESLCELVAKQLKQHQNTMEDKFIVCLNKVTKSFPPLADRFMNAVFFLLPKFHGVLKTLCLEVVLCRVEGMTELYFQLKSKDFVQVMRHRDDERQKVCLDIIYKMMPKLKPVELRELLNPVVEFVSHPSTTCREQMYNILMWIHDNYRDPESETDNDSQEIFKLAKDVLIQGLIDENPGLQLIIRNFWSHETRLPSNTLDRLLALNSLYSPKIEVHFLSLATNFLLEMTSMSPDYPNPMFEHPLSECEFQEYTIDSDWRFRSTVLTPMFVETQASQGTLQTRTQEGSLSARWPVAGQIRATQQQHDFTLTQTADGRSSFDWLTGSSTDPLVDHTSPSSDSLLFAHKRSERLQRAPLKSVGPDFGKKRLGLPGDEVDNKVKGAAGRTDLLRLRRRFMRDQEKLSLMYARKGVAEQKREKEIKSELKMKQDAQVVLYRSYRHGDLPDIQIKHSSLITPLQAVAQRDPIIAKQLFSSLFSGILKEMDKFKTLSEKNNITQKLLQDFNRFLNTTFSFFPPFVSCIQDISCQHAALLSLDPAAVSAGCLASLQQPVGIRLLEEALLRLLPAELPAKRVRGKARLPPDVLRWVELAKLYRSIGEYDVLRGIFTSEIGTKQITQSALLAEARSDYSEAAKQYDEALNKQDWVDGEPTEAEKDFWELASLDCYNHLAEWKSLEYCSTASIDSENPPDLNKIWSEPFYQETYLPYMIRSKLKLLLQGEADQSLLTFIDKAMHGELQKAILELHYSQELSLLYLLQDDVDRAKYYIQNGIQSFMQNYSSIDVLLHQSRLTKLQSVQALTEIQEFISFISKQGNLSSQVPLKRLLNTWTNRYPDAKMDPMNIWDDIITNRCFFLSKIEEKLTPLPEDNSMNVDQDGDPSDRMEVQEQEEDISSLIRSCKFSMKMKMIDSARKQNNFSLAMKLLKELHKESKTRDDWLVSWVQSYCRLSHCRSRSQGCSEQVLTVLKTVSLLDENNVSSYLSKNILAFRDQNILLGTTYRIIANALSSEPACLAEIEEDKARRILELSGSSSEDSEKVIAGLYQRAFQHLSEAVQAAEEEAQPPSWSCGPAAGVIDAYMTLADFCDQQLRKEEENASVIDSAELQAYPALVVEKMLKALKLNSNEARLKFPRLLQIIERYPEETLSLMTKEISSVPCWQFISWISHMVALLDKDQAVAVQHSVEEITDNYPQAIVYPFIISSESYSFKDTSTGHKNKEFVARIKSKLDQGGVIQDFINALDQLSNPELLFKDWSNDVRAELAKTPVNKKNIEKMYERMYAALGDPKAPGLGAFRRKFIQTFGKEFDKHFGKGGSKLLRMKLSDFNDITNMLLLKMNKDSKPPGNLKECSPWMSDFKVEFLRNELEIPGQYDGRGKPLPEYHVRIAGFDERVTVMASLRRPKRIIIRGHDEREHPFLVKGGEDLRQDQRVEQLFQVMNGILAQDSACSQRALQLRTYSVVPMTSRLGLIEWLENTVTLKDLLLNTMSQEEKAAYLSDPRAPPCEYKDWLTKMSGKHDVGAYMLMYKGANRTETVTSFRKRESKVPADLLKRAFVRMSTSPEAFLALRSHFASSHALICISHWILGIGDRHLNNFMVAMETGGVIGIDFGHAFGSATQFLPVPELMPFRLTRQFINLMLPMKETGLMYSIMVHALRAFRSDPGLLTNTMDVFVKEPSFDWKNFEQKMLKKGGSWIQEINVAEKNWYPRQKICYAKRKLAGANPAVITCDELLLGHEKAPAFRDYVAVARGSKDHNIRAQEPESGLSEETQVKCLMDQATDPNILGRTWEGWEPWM
Sequence of Serine/threonine-protein kinase B-raf (Homo sapiens), P15056 [V600E] (P15056 whole entry V600E): as the sequence (P15056 whole entry) above, with V600E counted along it

As to `Cn1cc(-n2cnc3c(NCc4nc5cc(Cl)c(Cl)cc5[nH]4)nc(N4CCOCC4)nc32)cn1`, the values for the % of inhibition in experiment [1] and in experiment [2] were 9.14% and 5.68%, respectively. Regarding `CN(C)CCOc1ccc(-c2nc(-c3ccncc3)c(-c3ccc4c(c3)CC/C4=N\O)[nH]2)cc1`, in experiment [3], the % of control stood at 94%. For the compound `CC[C@@H]1[C@H](F)C(=O)N[C@@H]1COc1nccc2cc(C(N)=O)c(OC)cc12` [ZIMLOVISERTIB], the % of inhibition in experiment [4] (at 0.01 µM) is -17.9%; in experiment [4] (at 0.04 µM) it was -5.4%; in experiment [4] (at 0.2 µM) it was 5%; in experiment [4] (at 1 µM), 12.5%; in experiment [4] (at 5 µM), -1.4%. In turn, `COc1cc(Nc2nc(C)cc(-c3cnn4nc(OC)ccc34)n2)cc(C(F)(F)F)c1` gave a % of control in experiment [5] of 70%. In turn, `Cc1cc(F)c(C(=O)Nc2cccc(-c3nncn3C(C)C)n2)cc1-n1cnc(C2CC2)c1` yielded a % of control in experiment [6] of 91%. `CCC(=O)N1CCN(c2ccc(-n3c(=O)ccc4cnc5ccc(-c6cnc7ccccc7c6)cc5c43)cc2C(F)(F)F)CC1` displayed a % of control in experiment [7] of 99%.
